Columns and labels:
hENPP2 [1] = target: T1, hENPP2 (UniProtKB/SwissProt Sequence ref Q13822) (Homo sapiens (Human), UniProt Q13822); assay: LPC hENPP2 assay (choline release, LPC as substrate); assay type: biochemical
How it was run: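 Choline released from LPC by ENPP2 is quantified after stopping with stop-developer containing 0.6 U/mL choline oxidase, 0.6 U/mL peroxidase, 1.8 mM TOOS, 1.2 mM amino-antipyrine and 20 mM EGTA. Quinoneimine dye read at 555 nm after 30 min at room temperature.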

hENPP2 [2] = target: T1, hENPP2; assay: FS3 hENPP2 assay (fluorogenic substrate FS-3); assay type: biochemical; conditions: hENPP2, FS-3 as substrate
Method: Compound IC50 values are determined in a fluorescent hENPP2 (UniProtKB/SwissProt Sequence ref Q13822) biochemical assay using the fluorogenic autotaxin substrate FS-3 as substrate. FS-3 is a doubly labeled analog of LPC wherein the fluorophore is quenched through intramolecular energy transfer. Without hENPP2, the emission of the probe is quenched. If the substrate is hydrolyzed by hENPP2, the emission of the probe is not quenched anymore resulting in a fluorescence increase. Inhibition of hENPP2 by compounds will result in a decrease of the signal.
10 μL of a dilution series of compound, starting from 20 μM highest concentration, ⅕ dilution, is added to the wells. hENPP2 is used at a final concentration of 0.4 μg/mL or 0.64 μg/mL (it will be appreciated by the skilled person that the potency read out is independent of the enzyme concentration). The enzyme is diluted in 50 mM Tris-HCl pH 8.0, 250 mM NaCl, 5 mM KCl, 1 mM MgCl2, 1 mM CaCl2, 0.1% fatty acid free BSA in a total volume of 20 μL. Enzyme mixture is added to compounds and the resulting mixture is incubated for 30 min at room temperature under shaking. The reaction is started by the addition of 20 μL of 0.75 μM FS-3 diluted in the same buffer as described above and the mixture is incubated at 30° C. for 30 min. Fluorescence is read on the Envision (Excitation 485 nm, emission 520 nm).

Row | IC50 (hENPP2 [1]) | IC50 (hENPP2 [2]) | Structure (SMILES)
1 | > 1000 nM | 0.01 to 25 nM | CCc1nc2ccc(N3CCC(NC(=O)OC(C)(C)C)C3)nn2c1N(C)c1nc(-c2ccc(F)cc2)cs1 (stereo not shown) [Cpd 133, tert-butyl 1-(2-ethyl-3-((4-(4-fluorophenyl)thiazol-2-yl)(methyl)amino)imidazo[1,2-b]pyridazin-6-yl)pyrrolidin-3-ylcarbamate]
2 | > 1000 nM | 0.01 to 25 nM | CCc1nc2ccc(N3CCN[C@H](CO)C3)nn2c1N(C)c1nc(-c2ccc(F)cc2)cs1 [Cpd 60, (S)-(4-(2-ethyl-3-((4-(4-fluorophenyl)thiazol-2-yl)(methyl)amino)imidazo[1,2-b]pyridazin-6-yl)piperazin-2-yl)methanol]
3 | > 1000 nM | 0.01 to 25 nM | CCc1nc2ccc(N3CCN(CCC#N)CC3)nn2c1N(C)c1nc(-c2ccc(F)cc2)cs1 [Cpd 51]
4 | > 1000 nM | 0.01 to 25 nM | CCc1nc2ccc(N3CCN(CC(=O)NC(C)C)CC3)nn2c1N(C)c1nc(-c2ccc(F)cc2)cs1 [Cpd 54, 2-(4-(2-ethyl-3-((4-(4-fluorophenyl)thiazol-2-yl)(methyl)amino)imidazo[1,2-b]pyridazin-6-yl)piperazin-1-yl)-N-isopropylacetamide]
5 | 500 to 1000 nM | 0.01 to 25 nM | CCc1nc2ccc(N3CCC(N4CCN(CCCO)CC4)C3)nn2c1N(C)c1nc(-c2ccc(F)cc2)cs1 (stereo not shown) [Cpd 145, 3-(4-(1-(2-ethyl-3-((4-(4-fluorophenyl)thiazol-2-yl)(methyl)amino)imidazo[1,2-b]pyridazin-6-yl)pyrrolidin-3-yl)piperazin-1-yl)propan-1-ol]
6 | > 1000 nM | 0.01 to 25 nM | CCc1nc2ccc(N3CCC(N4CCS(=O)(=O)CC4)C3)nn2c1N(C)c1nc(-c2ccc(F)cc2)cs1 (stereo not shown) [Cpd 150, {6-[3-(1,1-Dioxo-thiomorpholin-4-yl)-pyrrolidin-1-yl]-2-ethyl-imidazo[1,2-b]pyridazin-3-yl}-[4-(4-fluoro-phenyl)-thiazol-2-yl]-methyl-amine]
7 | > 1000 nM | 0.01 to 25 nM | CCc1nc2ccc(N3CCC(NS(C)(=O)=O)CC3)nn2c1N(C)c1nc(-c2ccc(F)cc2)cs1 [Cpd 83, N-(1-(2-ethyl-3-((4-(4-fluorophenyl)thiazol-2-yl)(methyl)amino)imidazo[1,2-b]pyridazin-6-yl)piperidin-4-yl)methane-sulfonamide]
8 | 500 to 1000 nM | 0.01 to 25 nM | CCc1nc2ccc(N3CCC(CC(=O)N(C)C)CC3)nn2c1N(C)c1nc(-c2ccc(F)cc2)cs1 [Cpd 108, 2-(1-(2-ethyl-3-((4-(4-fluorophenyl)thiazol-2-yl)(methyl)amino)imidazo[1,2-b]pyridazin-6-yl)piperidin-4-yl)-N,N-dimethylacetamide]
9 | > 1000 nM | 0.01 to 25 nM | CCc1nc2ccc(C3=CCN(S(C)(=O)=O)CC3)nn2c1N(C)c1nc(-c2ccc(F)cc2)cs1 [Cpd 194, N-(2-ethyl-6-(1-(methylsulfonyl)-1,2,3,6-tetrahydropyridin-4-yl)imidazo[1,2-b]pyridazin-3-yl)-4-(4-fluorophenyl)-N-methylthiazol-2-amine]
10 |  | 0.01 to 25 nM | CCc1nc2ccc(C3=CCN(C(=O)OC(C)(C)C)CC3)nn2c1N(C)c1nc(-c2ccc(F)cc2)cs1 [Compound 193, tert-butyl 4-(2-ethyl-3-((4-(4-fluorophenyl)thiazol-2-yl)(methyl)amino)imidazo[1,2-b]pyridazin-6-yl)-5,6-dihydropyridine-1(2H)-carboxylate]
11 | > 1000 nM |  | CCc1nc2ccc(N3CCC(C(=O)OC)C3)nn2c1N(C)c1nc(-c2ccc(F)cc2)cs1 (stereo not shown) [Cpd 139, 1-(2-Ethyl-3-{[4-(4-fluoro-phenyl)-thiazol-2-yl]-methyl-amino}-imidazo[1,2-b]pyridazin-6-yl)-pyrrolidine-3-carboxylic acid methyl ester]
12 | > 1000 nM |  | CCc1nc2cnc(N3CCN(CC(=O)N4CCC4)CC3)cn2c1N(C)c1nc(-c2ccc(F)cc2)cs1 [Cpd 13, 1-(azetidin-1-yl)-2-(4-(2-ethyl-3-((4-(4-fluorophenyl)thiazol-2-yl)(methyl)amino)imidazo[1,2-a]pyrazin-6-yl)piperazin-1-yl)ethanone]
13 | 100 to 500 nM |  | CCc1nc2ccc(N3CCN(CC(=O)N(C)C(C)C)CC3)nn2c1N(C)c1nc(-c2ccc(F)cc2)cs1 [Cpd 37, 2-(4-(2-ethyl-3-((4-(4-fluorophenyl)thiazol-2-yl)(methyl)amino)imidazo[1,2-b]pyridazin-6-yl)piperazin-1-yl)-N-isopropyl-N-methylacetamide]
14 | > 1000 nM |  | CCc1nc2ccc(N3CCN(C4CCOCC4)CC3)nn2c1N(C)c1nc(-c2ccc(F)cc2)cs1 [Cpd 39, N-(2-ethyl-6-(4-(tetrahydro-2H-pyran-4-yl)piperazin-1-yl)imidazo[1,2-b]pyridazin-3-yl)-4-(4-fluorophenyl)-N-methylthiazol-2-amine]
15 | > 1000 nM |  | CCc1nc2ccc(N3CCC4(CCOCC4)C3)nn2c1N(C)c1nc(-c2ccc(F)cc2)cs1 [Cpd 117, N-(2-ethyl-6-(8-oxa-2-azaspiro[4.5]decan-2-yl)imidazo[1,2-b]pyridazin-3-yl)-4-(4-fluorophenyl)-N-methylthiazol-2-amine]
16 | 100 to 500 nM |  | CCc1nc2ccc(N3CC(NCC(=O)N4CC(O)C4)C3)nn2c1N(C)c1nc(-c2ccc(F)cc2)cs1 [Cpd 155, 2-(1-(2-ethyl-3-((4-(4-fluorophenyl)thiazol-2-yl)(methyl)amino)imidazo[1,2-b]pyridazin-6-yl)azetidin-3-ylamino)-1-(3-hydroxyazetidin-1-yl)ethanone]
17 | > 1000 nM |  | CCc1nc2ccc(N3CCC(=O)C3)nn2c1N(C)c1nc(-c2ccc(F)cc2)c(Cl)s1 [Compound 132, 1-(3-((5-chloro-4-(4-fluorophenyl)thiazol-2-yl)(methyl)amino)-2-ethylimidazo[1,2-b]pyridazin-6-yl)pyrrolidin-3-one]
18 | > 1000 nM |  | CCc1nc2ccc(N3CCC[C@H]3C(=O)O)nn2c1N(C)c1nc(-c2ccc(F)cc2)cs1 [Compound 138, (S)-1-(2-ethyl-3-((4-(4-fluorophenyl)thiazol-2-yl)(methyl)amino)imidazo[1,2-b]pyridazin-6-yl)pyrrolidine-2-carboxylic acid]
19 | 500 to 1000 nM |  | CCc1nc2ccc(N3CCC(NC(=O)C4CCNCC4)CC3)nn2c1N(C)c1nc(-c2ccc(F)cc2)cs1 [Cpd 88, N-(1-(2-ethyl-3-((4-(4-fluorophenyl)thiazol-2-yl)(methyl)amino)imidazo[1,2-b]pyridazin-6-yl)piperidin-4-yl)piperidine-4-carboxamide]
20 | 100 to 500 nM |  | CCc1nc2ccc(N3CCN(CC(=O)N4CCCC4C)CC3)nn2c1N(C)c1nc(-c2ccc(F)cc2)cs1 (stereo not shown) [Cpd 28, 2-(4-(2-ethyl-3-((4-(4-fluorophenyl)thiazol-2-yl)(methyl)amino)imidazo[1,2-b]pyridazin-6-yl)piperazin-1-yl)-1-(2-methylpyrrolidin-1-yl)ethanone]
21 | > 1000 nM |  | CCc1nc2ccc(C3CCNCC3)nn2c1N(C)c1nc(-c2ccc(F)cc2C#N)ns1 [Compound 219, 2-(5-((2-ethyl-6-(piperidin-4-yl)imidazo[1,2-b]pyridazin-3-yl)(methyl)amino)-1,2,4-thiadiazol-3-yl)-5-fluorobenzonitrile]
22 | 0.01 to 100 nM |  | CCc1nc2ccc(N3CC[C@@H](NCC(=O)N4CC(O)C4)C3)nn2c1N(C)c1nc(-c2ccc(F)cc2)c(C#N)s1 [Cpd 176, (R)-2-((2-ethyl-6-(3-(2-(3-hydroxyazetidin-1-yl)-2-oxoethylamino)pyrrolidin-1-yl)imidazo[1,2-b]pyridazin-3-yl)(methyl)amino)-4-(4-fluorophenyl) thiazole-5-carbonitrile]

Source: patent US9796719B2, “Compounds and pharmaceutical compositions thereof for the treatment of inflammatory disorders” (GALAPAGOS NV, priority 2013, dated 2017)
